One data set can be described thus: Mouse PK Assays. It is filed as in vivo. Set-up: PK-Mouse: PO AUC-last/dose: unit not given here. The following applies: fed.
For data set [1], the target named is human full length PIK3CA H1047R mutant (p110α/p85α) (Homo sapiens (Human), UniProt P42336, H1047R). In words: PI3K-alpha kinase (PIK3CA) activity, H1047R mutant, Transcreener ADP2 FI assay. The following applies: PI3K-α (PIK3CA) biochemical. Here is the method: (§1) PI3K-Alpha Kinase (PIK3CA) Activity, Wild-Type and H1047R Mutant and Determining IC50 Values for Inhibitors
(§2) Recombinant, catalytically active human full length PIK3KA Wild-type and H1047R mutant were purchased as 1:1 complex of N-terminal 6× his tagged p110 ? (catalytic) and untagged p85 ? (regulatory subunit) from EMD Millipore Sigma (cat. no. 14-602M and 14-792M, respectively). The enzyme stocks were diluted to 5× stocks in buffer (20 mM HEPES pH 7.4, 100 mM NaCl, 0.5 mM EGTA, 0.01% triton-x-100) just before use. PIP2diC8 (Avanti Polar Lipids Inc., cat. no. 850185) or phosphoinositol-4,5-bisphosphate with phosphoserine (PIP2:PS) membrane (Thermo Fisher Scientific, cat. no. PV5100) was used as lipid substrates. PIP2diC8 lyophilized powder and PIP2:PS (1:19) membrane stock (1 mM in PIP2) were separately dissolved in milliQ water to a concentration of 250 uM and stored in −20° C. 10 mM stocks of compounds were serially diluted (3×) in neat DMSO and stored in a dessicator at room temperature. 5× compound stocks in 25% DMSO were prepared fresh from neat DMSO stocks.
(§3) Wild-type (WT) and H1047R mutant protein, along with buffer components (except ATP), were incubated with or without compound at 27° C. for 1 h. After incubation, the reaction was initiated by the addition of 5 uL of 125 uM ATP. A typical assay mixture (25 uL) comprised 40 mM HEPES buffer, pH 7.4, 25 mM MgCl2, 0.01% v/v triton-X-100, 5% v/v DMSO, 20 mM NaCl, 1-5 nM wt or H1047R, 25 uM ATP, and 50 uM PIP2diC8 or PIP2 in membrane. The reaction was allowed to proceed until about […] (2.5 uM ADP) after which time, 10 uL of reaction mixture was quenched with 25 uL of transcreener reagent (Transcreener ADP2 FI assay kit, BellBrook labs, Cat. No. 3013). The contents were incubated at rt for 1 h and fluorescence was measured using a plate reader (Paradigm, Molecular Devices). The same assay was also run at pH 6.0 or 6.4 using MOPS buffer (Fisher BioReagents, CAS 1132-61-2). A calibration curve was generated under identical buffer conditions with varying ADP amounts. Using that, the observed fluorescence was converted to uM ADP. A plot between [ADP] and log[I] yielded the dose-response curves that enabled the calculation of IC50s.

For data set [2], the target named is human full length PIK3CA wild-type (p110α/p85α) (Homo sapiens (Human), UniProt P42336). In words: PI3K-alpha kinase (PIK3CA) activity, wild-type, Transcreener ADP2 FI assay. The conditions noted are these: PI3K-α (PIK3CA) biochemical. On the procedure: as §1, §2, §3
[3] abbreviates: PO 10 mg/kg, 20% DMSO/60% PEG400/20% Water.
[4] abbreviates: PO 50 mg/kg, 20% DMSO/60% PEG400/20% Water.
[5] abbreviates: PO 10 mg/kg, 30% SBE-beta-cyclodextrin.
The mark [6] stands for this setting: PO 100 mg/kg, 20% DMSO/60% PEG400/20% H2O.

Bounds are passed on as bounds.

Sequence of human full length PIK3CA H1047R mutant (p110α/p85α) (P42336 whole entry H1047R): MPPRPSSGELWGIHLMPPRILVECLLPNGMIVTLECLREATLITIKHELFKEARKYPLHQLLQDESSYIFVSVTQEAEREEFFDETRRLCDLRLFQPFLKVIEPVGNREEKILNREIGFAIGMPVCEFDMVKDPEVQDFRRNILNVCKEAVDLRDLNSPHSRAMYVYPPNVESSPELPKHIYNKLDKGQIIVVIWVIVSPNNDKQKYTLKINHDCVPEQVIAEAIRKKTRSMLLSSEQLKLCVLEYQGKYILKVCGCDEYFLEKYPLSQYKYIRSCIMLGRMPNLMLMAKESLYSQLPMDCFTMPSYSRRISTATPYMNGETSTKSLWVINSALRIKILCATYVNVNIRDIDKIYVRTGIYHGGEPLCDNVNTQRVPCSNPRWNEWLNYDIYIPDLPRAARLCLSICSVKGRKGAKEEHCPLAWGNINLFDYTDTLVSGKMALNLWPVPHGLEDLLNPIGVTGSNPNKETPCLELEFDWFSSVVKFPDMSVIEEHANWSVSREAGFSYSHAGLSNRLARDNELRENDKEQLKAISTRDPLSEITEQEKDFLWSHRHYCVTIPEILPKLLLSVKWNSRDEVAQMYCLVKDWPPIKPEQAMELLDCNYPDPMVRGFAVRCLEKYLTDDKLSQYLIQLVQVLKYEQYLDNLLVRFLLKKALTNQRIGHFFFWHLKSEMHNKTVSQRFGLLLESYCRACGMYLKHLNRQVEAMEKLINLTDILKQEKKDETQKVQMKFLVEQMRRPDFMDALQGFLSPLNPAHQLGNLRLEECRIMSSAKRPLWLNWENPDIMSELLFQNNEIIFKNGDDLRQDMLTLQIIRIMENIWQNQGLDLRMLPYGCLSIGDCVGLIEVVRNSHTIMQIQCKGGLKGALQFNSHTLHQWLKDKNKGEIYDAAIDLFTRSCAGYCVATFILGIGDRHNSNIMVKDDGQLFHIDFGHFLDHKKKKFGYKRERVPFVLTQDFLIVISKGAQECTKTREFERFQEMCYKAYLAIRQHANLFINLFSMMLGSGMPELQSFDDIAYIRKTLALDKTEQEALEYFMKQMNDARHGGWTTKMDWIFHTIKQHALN
Sequence of human full length PIK3CA H1047R mutant (p110α/p85α) (P27986 whole entry partner): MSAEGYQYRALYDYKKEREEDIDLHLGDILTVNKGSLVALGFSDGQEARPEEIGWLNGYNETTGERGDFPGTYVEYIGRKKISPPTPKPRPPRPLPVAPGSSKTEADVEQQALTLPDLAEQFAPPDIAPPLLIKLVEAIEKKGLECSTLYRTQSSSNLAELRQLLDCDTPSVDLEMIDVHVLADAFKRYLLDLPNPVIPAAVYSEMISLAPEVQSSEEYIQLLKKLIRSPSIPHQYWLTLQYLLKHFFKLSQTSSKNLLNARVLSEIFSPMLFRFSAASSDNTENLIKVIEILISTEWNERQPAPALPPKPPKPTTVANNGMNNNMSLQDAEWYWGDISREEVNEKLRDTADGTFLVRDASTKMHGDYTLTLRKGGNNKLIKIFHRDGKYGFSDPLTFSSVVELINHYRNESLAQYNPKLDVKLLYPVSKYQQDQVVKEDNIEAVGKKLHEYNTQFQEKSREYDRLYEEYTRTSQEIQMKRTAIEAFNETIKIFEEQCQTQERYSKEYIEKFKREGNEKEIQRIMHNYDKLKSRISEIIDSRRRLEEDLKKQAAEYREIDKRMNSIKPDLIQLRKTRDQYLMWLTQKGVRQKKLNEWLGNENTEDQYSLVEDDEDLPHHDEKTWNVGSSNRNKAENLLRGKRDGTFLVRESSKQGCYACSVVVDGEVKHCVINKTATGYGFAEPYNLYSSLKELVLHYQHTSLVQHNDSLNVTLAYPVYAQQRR
Sequence of human full length PIK3CA wild-type (p110α/p85α) (P42336 whole entry): as the sequence (P42336 whole entry H1047R) above, with R1047H counted along it
Sequence of human full length PIK3CA wild-type (p110α/p85α) (P27986 whole entry partner): as the sequence (P27986 whole entry partner) above

`Cc1cc(C(C)Nc2ccccc2C(=O)O)c2oc(N3Cc4ccccc4C3)cc(=O)c2c1` (single isomer, unassigned) [Example 363, 2-[1-(2-Isoindolin-2-yl-6-methyl-4-oxo-chromen-8-yl)ethylamino]benzoic acid]: in the data set “Mouse PK Assays” (setting [3]), the “PK-Mouse: F % Calcd” value is 86% and the “PK-Mouse: PO AUC-last/dose” value came to 1800. Moreover, in “Mouse PK Assays” (setting [4]), the “PK-Mouse: F % Calcd” value is 33% and the “PK-Mouse: PO AUC-last/dose” value stood at 700.
As for `Cc1cc(C(C)Nc2ccccc2C(=O)O)c2oc(N3CCC(C)(C)CC3)cc(=O)c2c1` (single isomer, unassigned) [Example 366, 2-[1-[2-(4,4-Dimethyl-1-piperidyl)-6-methyl-4-oxo-chromen-8-yl]ethylamino]benzoic acid], the “PK-Mouse: F % Calcd” value in the data set “Mouse PK Assays” (setting [5]) is listed as 110%; in the data set “Mouse PK Assays” (setting [4]), 280%; in “Mouse PK Assays” (setting [6]), 220%. The “PK-Mouse: PO AUC-last/dose” value in the data set “Mouse PK Assays” (setting [5]) was found to be 390; in “Mouse PK Assays” (setting [4]) it was 960; in the data set “Mouse PK Assays” (setting [6]), 760.
As to `Cc1cc(C(C)Nc2ccccc2C(=O)O)c2oc(N3CCC(C)CC3)cc(=O)c2c1` (centres unmarked) [Example 370, 2-[1-[6-Methyl-2-(4-methyl-1-piperidyl)-4-oxo-chromen-8-yl]ethylamino]benzoic acid], the IC50 (commonly the concentration that gives 50% inhibition) in data set [1] is less than 500 nM; in data set [2] it was greater than 10000 nM.
The like results for `CC(Nc1ccc(Cl)nc1C(=O)O)c1cc(F)cc2c(=O)cc(N3Cc4ccccc4C3)oc12` (centres unmarked) [Example 400, 6-Chloro-3-[1-(6-fluoro-2-isoindolin-2-yl-4-oxo-chromen-8-yl)ethylamino]pyridine-2-carboxylic acid 2,2,2-trifluoroacetic acid] were, in that order, less than 500 nM and less than 500 nM.

The values are drawn from patent US20230286960A1, “ALLOSTERIC CHROMENONE INHIBITORS OF PHOSPHOINOSITIDE 3-KINASE (PI3K) FOR THE TREATMENT OF DISEASE” (Petra Pharma Corporation, priority 2020, published 2023).
